Reference: PubChem BioAssay (NCI)
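Following 48 hours of exposure in 96-well plates, responses at five concentrations were used to interpolate endpoints linearly. GI50 = concentration required for 50% inhibition of growth. TGI is the concentration that stops growth completely.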

Assays:
Experiment in all cases: NCI-60 cell line screen, 48 h
A498 renal = system: A498 renal
HT29 colon = system: HT29 colon
KM20L2 colon = system: KM20L2 colon
LOX IMVI melanoma = system: LOX IMVI melanoma
NCI-H522 lung = system: NCI-H522 lung
OVCAR-5 ovarian = system: OVCAR-5 ovarian
SK-OV-3 ovarian = system: SK-OV-3 ovarian
SN12C renal = system: SN12C renal
SNB-75 CNS = system: SNB-75 CNS
SNB-78 CNS = system: SNB-78 CNS
MDA-MB-231 breast = system: MDA-MB-231 breast

SMILES | TGI (A498 renal) [µM] | TGI (HT29 colon) [µM] | TGI (KM20L2 colon) [µM] | TGI (LOX IMVI melanoma) [µM] | TGI (NCI-H522 lung) [µM] | TGI (OVCAR-5 ovarian) [µM] | TGI (SK-OV-3 ovarian) [µM] | TGI (SN12C renal) [µM] | TGI (SNB-75 CNS) [µM] | TGI (SNB-78 CNS) [µM] | TGI (MDA-MB-231 breast) [µM] | GI50 (A498 renal) [µM] | GI50 (HT29 colon) [µM] | GI50 (LOX IMVI melanoma) [µM] | GI50 (MDA-MB-231 breast) [µM] | GI50 (NCI-H522 lung) [µM] | GI50 (OVCAR-5 ovarian) [µM] | GI50 (SK-OV-3 ovarian) [µM] | GI50 (SN12C renal) [µM] | GI50 (SNB-75 CNS) [µM]
C=Nc1ccc([N+](=O)[O-])cc1 | > 100 | > 100 | > 100 | > 100 | > 100 | > 100 | > 100 | > 100 | > 100 | > 100 |  |  |  |  |  |  |  |  |  | 
O=[N+]([O-])c1ccc2c(c1)nc(Cc1ccccc1)n2C[C@@H]1CCCN2CCCCC12 (stereo partly specified) | 33.2 | 49.2 |  | 60.2 | 80 | > 100 | > 100 | > 100 | > 100 |  | 95.1 |  |  |  |  |  |  |  |  | 
Cc1cn(C2CC(O)C(CO)C2C)c(=O)[nH]c1=O (stereo unspecified) |  | > 100 | > 100 | > 100 | > 100 | > 100 | > 100 | > 100 | > 100 | > 100 |  |  |  |  |  |  |  |  |  | 
COc1ccc2c(c1)OCC1(O)Cc3ccccc3OC21 (stereo unspecified) | > 100 | > 100 |  | > 100 | > 100 | > 100 | > 100 | > 100 | > 100 |  | > 100 |  |  |  |  |  |  |  |  | 
CN(C)N=Nc1ccc([N+](=O)[O-])cc1C(N)=O | > 100 | > 100 | > 100 | > 100 | > 100 | > 100 | > 100 | > 100 | > 100 | > 100 |  |  |  |  |  |  |  |  |  | 
Cc1cccc2c1C(=O)C1(Cc3ccccc3C1=O)C2 (stereo unspecified) | > 100 | > 100 |  | > 100 | > 100 | > 100 | > 100 | > 100 | > 100 |  | > 100 |  |  |  |  |  |  |  |  | 
O=C(O)Cc1ccc(Oc2nc3ccccc3nc2-c2cccs2)cc1 | 84.7 | > 100 |  | > 100 | > 100 | > 100 | > 100 | > 100 | 83.2 |  | > 100 |  |  |  |  |  |  |  |  | 
CSC1=Nc2ccccc2-c2nc(-c3ccccc3)cc(-c3ccccc3)c2C1 | > 100 | > 100 |  | > 100 | 40.1 | > 100 | 30.6 | > 100 | 16.8 |  | 41.6 |  |  |  |  |  |  |  |  | 
CCOC(=O)c1ccc(-c2cc(C)[nH]n2)[nH]1 | > 100 | > 100 |  | > 100 | > 100 | > 100 | > 100 | > 100 | > 100 |  | > 100 |  |  |  |  |  |  |  |  | 
Cc1cc(NS(=O)(=O)c2ccc(NC(=O)c3ccc4nc5ccccc5c(Nc5ccc(S(=O)(=O)N=C(N)N)cc5)c4c3)cc2)no1 | 33.7 | 38.2 |  | 23.1 | 34.8 | 31.8 | 41.6 | 34.4 | 51.9 |  | 29.4 |  |  |  |  |  |  |  |  | 
CC1(C)C2CCC1(CS(=O)(=O)Nc1ccccc1)C(=O)C2 (stereo unspecified) | > 100 | > 100 |  | > 100 | > 100 | > 100 | > 100 | > 100 | > 100 |  | > 100 |  |  |  |  |  |  |  |  | 
CO/C(=N\N=C\c1ccc(Cl)cc1)c1ccncc1 | > 100 | > 100 | > 100 |  | > 100 | > 100 | > 100 | > 100 | > 100 | > 100 |  |  |  |  |  |  |  |  |  | 
COc1cc2c(cc1OCCCC(=O)Nc1cc(C(=O)Nc3cc(C(=O)Nc4cc(C(=O)NCCCN(C)C)n(C)c4)n(C)c3)n(C)c1)N=C[C@@H]1CCCN1C2=O | 26.4 | 4.1 |  | 2.26 | 0.427 | 9.38 | 28.4 | 2.63 | 9.95 |  | 5.53 |  |  |  |  |  |  |  |  | 
COc1cc(C2c3cc4c(cc3C(O)C3CCC(=O)N23)OCO4)cc(OC)c1OC (stereo unspecified) | > 100 | 76.7 |  | > 100 | 89.9 | > 100 | > 100 | > 100 | > 100 |  | > 100 |  |  |  |  |  |  |  |  | 
O=C1Cc2c(-c3ccc(Cl)cc3)cc(-c3ccccc3)nc2-c2ccccc2N1 | 6.67 | > 42.8 |  | 22.8 | 32.9 | > 81 | 18.8 | 25 | 14.2 |  | 20.1 |  |  |  |  |  |  |  |  | 
O=C1NN=C(c2ccc(Cl)cc2)CC1C1C(=O)N(c2ccccc2)N=C1c1ccccc1 (stereo unspecified) | 84.4 | > 100 |  | 45.9 | 65.2 | 80.7 | > 100 | > 100 | > 100 |  | > 100 |  |  |  |  |  |  |  |  | 
Brc1ccc2c(-c3nc(-c4c[nH]c5ccccc45)cs3)c[nH]c2c1 | > 92.3 | > 100 |  | > 73 | > 100 | > 100 | > 100 | > 100 | > 100 |  | > 89.4 |  |  |  |  |  |  |  |  | 
Oc1nc(N/N=C/c2c[nH]c3ccccc23)[nH]c1/C=C1\C=Nc2ccccc21 | 27.8 | 47.5 |  | 31.1 | 24.2 | > 100 | > 100 | > 100 | 78 |  | 43.2 |  |  |  |  |  |  |  |  | 
CC1(C)O[C@H](C(=O)O)[C@@H](C(=O)O)O1 | > 100 | > 100 |  | > 100 | > 100 | > 100 | > 100 | > 100 | > 100 |  | > 100 |  |  |  |  |  |  |  |  | 
C/C(O)=C/c1nc2ccccc2nc1/C=C(/C)O | 67.4 | 43.3 |  | 56.4 | 27.7 | 79.9 | > 100 | 97.7 | 63.3 |  | 53 |  |  |  |  |  |  |  |  | 
O=C(Nc1ccccc1)c1cc2c(cc1Cl)Sc1nccn1S2(=O)=O | > 70.9 | > 75.6 |  | 39 | 38.6 | > 86.3 | > 100 | > 100 | 63.7 |  | > 81.2 |  |  |  |  |  |  |  |  | 
COC(=O)C1=C(C)N2CCCOC2(C)C(C(=O)OC)C1c1cccc(Cl)c1 (stereo unspecified) |  | 56.2 | 64.4 |  |  |  |  |  | 42.3 |  |  |  |  |  |  |  |  |  |  | 
Nn1c(Cc2ccc(Cl)cc2)n[nH]c1=O | > 100 | > 100 |  | > 100 | > 100 | > 100 | > 100 | > 100 | > 100 |  | > 100 |  |  |  |  |  |  |  |  | 
CN(Cc1c2ccccc2cc2ccccc12)S(=O)(=O)c1ccc(-c2c3nc(c(-c4ccc(S(=O)(=O)N(C)Cc5c6ccccc6cc6ccccc56)cc4)c4ccc([nH]4)c(-c4ccc(S(=O)(=O)N(C)Cc5c6ccccc6cc6ccccc56)cc4)c4nc(c(-c5ccc(S(=O)(=O)N(C)Cc6c7ccccc7cc7ccccc67)cc5)c5ccc2[nH]5)C=C4)C=C3)cc1 | > 100 | > 100 |  | > 100 | > 100 | > 100 | > 100 | > 100 | 56.8 |  | > 100 |  |  |  |  |  |  |  |  | 
CC(C)(C)C#C[P+](c1ccccc1)(c1ccccc1)c1ccccc1 | 1.35 | 1.11 | 1.19 | 1.4 | 0.448 | 2.4 | 1.81 | 0.877 | 0.553 | 1.35 |  |  |  |  |  |  |  |  |  | 
COc1cc2c(cc1OC)C1CN3C(=O)CCC3C(O)C1c1cc(OC)c(OC)cc1-2 (stereo unspecified) | > 100 | > 100 |  | > 100 | > 100 | > 100 | > 100 | > 100 | > 100 |  | > 100 |  |  |  |  |  |  |  |  | 
CCCC1NC(C#N)(C#N)C(CCC)NC1(C#N)C#N (stereo unspecified) | > 96.4 | > 55.7 |  | 31.4 | 1.51 | > 90.1 | > 100 | > 37 | > 41.1 |  | > 89.7 |  |  |  |  |  |  |  |  | 
[O-][n+]1onc2c3nn(-c4ccccc4)nc3ccc21 | > 100 | > 100 |  | > 58.3 | > 100 | > 100 | > 100 | > 100 | > 100 |  | > 100 |  |  |  |  |  |  |  |  | 
CC/C(Cl)=N\OC(=O)Nc1ccc(OC)cc1 | 37 | 33.8 |  | 4.89 | 2.18 | 11.3 | 31.7 | 11.4 | 19.3 |  | 17.3 |  |  |  |  |  |  |  |  | 
COC12C=C/C(=C(/C(=O)OCc3ccncn3)C(=O)CCCCCCCCC3(OC)C=C/C(=C(/C(=O)OCc4ccncn4)C(=O)CCCCCCCC1)O3)O2 | 0.833 | 0.689 |  | 0.503 | 0.545 | 4.81 | 3.75 | 1.12 | 17.7 |  | > 100 | 0.252 | 0.266 | 0.211 | 0.335 | 0.207 | 0.334 | 0.409 | 0.297 | 1.52
